The numbers were not newly measured in patent US20080096972A1, “COMPOUND FORMULATIONS OF 2-AMINO-1, 3-PROPANEDIOL COMPOUNDS” (priority 2004, published 2008), which cites them from elsewhere.

For this series the following is noted: shortly after preparation or upon storage.

Each structure is given as a SMILES string.

As to `CCCCCCCCc1ccc(CCC(N)(CO)CO)cc1` [2-amino-2-[2-(4-octylphenyl)ethyl]-propane-1,3-diol], the “crystalline deposits in aqueous solutions” value is reported as “crystalline deposits of this compound have been observed”.
